Results from patent US8093374B2, “Bismuth hyaluronate, the preparation method and the use thereof” (priority 2005, dated 2012).
Marks after values point to notes of the source that are not given here.

Experiments:
[1] = test system: acetic acid-induced gastric ulcer; assay: Protecting effect on acetic acid-induced gastric ulcer in rats; assay type: in vivo, Female Wistar rats; conditions: for Area of Ulcer (x ± s): intragastric once daily for 10 consecutive days, negative control 15.71 ± 2.20; for Inhibition of Ulcer: intragastric once daily for 10 days, percentage of the control
Source text: Female Wistar rats weighing 150 to 200 g were used. Following the method described in literatures ((1) Pharmacological Test Methodology, 2nd edition, Beijing, People's Health Press, 1991, 1158-1160; (2) Guidelines for preclinical studies of new drugs (western medicines) (pharmacy, pharmacology, toxicology), 1993, 88-89), a model of acetic acid-induced gastric ulcer was made. Specifically, in an area of 5 mm in diameter on the serosal side of the body of stomach in rats under anesthesia with ether, gastric ulcer was induced by treatment with 0.2 ml of glacial acetic acid for 1.5 min. On the next day following the operation, animals were randomly divided into 6 groups and started on oral administration, with distilled water as negative control and colloidal bismuth pectin as positive control. The test samples are the bismuth hyaluronate of the present invention prepared according to the Preparation Example 1 (having a glucuronate content of 27.9% and a bismuth content of 30.7%) and the starting material sodium hyaluronate (having an average molecular weight of 9.1×10^5 and a glucuronate content of 38.9%). The rats received intragastric administration once daily in a volume of about 10 ml for 10 consecutive days. Then the animals were sacrificed, and their stomachs were removed and fixed in a formaldehyde solution. After dissection, the size of the gastric ulcer was determined by measuring under microscope the maximum longitudinal diameter (d1) and the maximum transverse diameter (d2) through the center of the ulcer, and calculating the area of ulcer using the following equation: S=π×(d1/2)×(d2/2). The inhibition of ulcer was expressed as the percentage of the control.

[2] = test system: hydrochloric acid-ethanol-induced injury to gastric mucosa; assay: Prevention and treatment of hydrochloric acid-ethanol-induced injury to gastric mucosa in rats; assay type: in vivo, Female Wistar rats; conditions: for Length of injury (x ± s): sacrificed 1 h after, negative control 97.50 ± 13.28
Experimental: Female Wistar rats weighing 150 to 200 g were used. Following the method described in the literature (Methodology of pharmacological studies of Chinese medicines, Beijing, People's Health Press, 1994: 441). The rats were fasted, with access to water, for 24 h. Then the rats were randomly divided (see above) and received intragastric administration. 30 min after the administration, each rat was drenched with hydrochloric acid-ethanol (a mixture of 50 ml of absolute ethanol and 1 ml of concentrated hydrochloric acid) at a dose of 0.5 ml/100 g of body weight. 1 h after the treatment with acidified ethanol, the animals were sacrificed, and their stomachs were removed and fixed in a formaldehyde solution. The stomach was cut open along the greater curvature and washed for examination of the injury to the gastric mucous membrane.

[3] = 150 mg/kg intragastric 30 min before hydrochloric acid-ethanol
[4] = 50 mg/kg intragastric 30 min before hydrochloric acid-ethanol
[5] = 100 mg/kg intragastric 30 min before hydrochloric acid-ethanol

Substance	Area of Ulcer (x ± s) ([1]; 150 mg/kg)	Inhibition of Ulcer ([1]; 150 mg/kg) [%]	Inhibition of Ulcer [2, 3] [%]	Length of injury (x ± s) [2, 3]	Area of Ulcer (x ± s) ([1]; 50 mg/kg)	Inhibition of Ulcer ([1]; 50 mg/kg) [%]	Area of Ulcer (x ± s) ([1]; 100 mg/kg)	Inhibition of Ulcer ([1]; 100 mg/kg) [%]	inhibition of acetic acid-induced gastric ulcer (in words) ([1]; rats, summary of Table 2)	inhibition of acetic acid-induced gastric ulcer compared with colloidal bismuth pectin (in words) ([1]; rats, versus positive control)	Inhibition of Ulcer [2, 4] [%]	Length of injury (x ± s) [2, 4]	Inhibition of Ulcer [2, 5] [%]	Length of injury (x ± s) [2, 5]	inhibition of acidified ethanol-induced gastric ulcer (in words) ([2]; rats, summary of Table 3)	inhibition of acidified ethanol-induced gastric ulcer compared with colloidal bismuth pectin (in words) ([2]; rats, versus positive control)
sodium hyaluronate [reference compound]	10.25 ± 2.29 mm^2	34.75	48.16	50.54 ± 11.98 mm	–	–	–	–	–	–	–	–	–	–	–	–
colloidal bismuth pectin [reference compound]	7.15 ± 2.03* mm^2	54.48	55.24	43.64 ± 9.55 mm	–	–	–	–	–	–	–	–	–	–	–	–
bismuth hyaluronate	4.05 ± 1.62***^ΔΔ mm^2	74.22	92.70	7.11 ± 2.13***^ΔΔΔ mm	5.92 ± 2.27** mm^2	62.32	4.98 ± 1.15***^Δ mm^2	68.30	statistically significant inhibition	significantly higher than the positive control	72.78	26.54 ± 7.88***^ΔΔ mm	92.93	6.89 ± 1.86***^ΔΔΔ mm	statistically significant inhibition	significantly higher than the positive control
